# Read-outs that look alike come from different tables or passages of the source.
# How the values were obtained:
# std:ddy strain male mice = test: Toxicity to mouse, administration into the stomach (Test Example 3); assay type: in vivo; settings: into the stomach in olive oil
# Method: The compound listed in Table 1 or Fipronil was dissolved in olive oil to a predetermined concentration, and the resulting solution was directly administered into the stomachs of std:ddy strain male mice by the use of a probe. The dose was 30 mg/kg or 100 mg/kg. Whether the mice were alive or dead was observed 3 hours, 1 day, 7 days and 14 days after the administration.
# [1] = test system: hatched larvae of Haemaphysalis longicornis; test: In vitro control effect on acarians, treated Pasteur's pipette test (Test Example 1); assay type: in vivo
# Method: Neoglamine was added to the emulsion of Example 1 in an amount of 0.01% and the resulting mixture was diluted with tap water to each concentration shown in Table 2. After a commercial 0.5×15 cm Pasteur's pipette was immersed in the dilution for 30 seconds, it was vertically stood on cotton and air-dried. The head of the air-dried Pasteur's pipette was plugged with cotton, and 10 hatched larvae of Haemaphysalis longicornis were sucked from the cotton-plugged end side by the use of a suction pump and then the other end was sealed with putty. After the suction, the pipette was allowed to stand in a desiccator containing a saturated aqueous disodium hydrogenphosphate solution and maintained at 23° C. Observation was carried out after 2 days and after 4 days. Fipronil was used as a positive control.
# [2] = test system: two-spotted spider mite (Tetranychus urticae); test: Comparative test: insecticidal effect on two-spotted spider mite, leaf immersion (Test Example 5); assay type: in vivo; settings: for insecticidal activity against the two-spotted spider mites (in words): 200 ppm, 2 days after immersion; for mortality at 200 ppm: Tetranychus urticae, in Phaseolus vulgaris, 48 h, read-out: Mortality after 2 days (%)
# Method: Twenty adult female two-spotted spider mites were released on the leaves of a potted kidney bean plant. One day after the release, the kidney bean leaves were immersed for several seconds in a chemical solution obtained by diluting a 20% emulsion of each compound with tap water to a concentration of 200 ppm. After air-dryness, the leaves were placed in a room thermostated at 25° C. Two days after the immersion, whether the adult two-spotted spider mites on the leaves were alive or dead were judged and the dead and alive were counted. The mortality was calculated.
# [3] = test system: hatched larvae of Haemaphysalis longicornis; test: In vivo control effect on ticks on rabbit ears, spot-on treatment (Test Example 2)
# Method: About 40 hatched larvae of Haemaphysalis longicornis were inoculated on the ears of a rabbit by the use of a cloth bag, made parasitic on the rabbit and allowed to suck the blood. After 24 hours, the cloth bag was taken off and ticks sucking the blood were counted. […] The left ear was not treated. Three hours, 1 day and 2 days after the spot-on treatment, the living ticks on each of the right and left ears were counted. As a control animal, there was used a rabbit whose right ear had been treated with only the base ingredient for preparation for spot-on treatment and whose left ear had been not treated.
# cat = test: Administration to a cat, spot-on dropping, clinical symptom (Test Example 4); settings: for Clinical symptom: 0.5 ml spot-on
# Description: After the dropping, the clinical symptom of the cat was observed.
# [4] = Haemaphysalis longicornis, 48 h, read-out: Mortality after 2 days
# [5] = Haemaphysalis longicornis, 96 h, read-out: Mortality after 4 days
# [6] = left ear (not treated), right ear spot-on 0.1 ml of 20% solution
# [7] = right ear (treated), spot-on 0.1 ml of 20% solution
Compound,Cumulative mortality after 3 hours (std:ddy strain male mice; 30 mg/kg),Cumulative mortality after 1 day (std:ddy strain male mice; 30 mg/kg),Cumulative mortality after 7 days (std:ddy strain male mice; 30 mg/kg),Cumulative mortality after 14 days (std:ddy strain male mice; 30 mg/kg),Cumulative mortality after 3 hours (std:ddy strain male mice; 100 mg/kg),Cumulative mortality after 1 day (std:ddy strain male mice; 100 mg/kg),Cumulative mortality after 7 days (std:ddy strain male mice; 100 mg/kg),Cumulative mortality after 14 days (std:ddy strain male mice; 100 mg/kg),"mortality at 0.1 ppm [1, 4] [%]","mortality at 1 ppm [1, 4] [%]","mortality at 10 ppm [1, 4] [%]","mortality at 1 ppm [1, 5] [%]","mortality at 10 ppm [1, 5] [%]",insecticidal activity against the two-spotted spider mites (in words) [2],mortality at 200 ppm [2] [%],further results
"FC(F)(F)Sc1cn(-c2c(Cl)cc(C(F)(F)F)cc2Cl)c2ccccc12 [Compound 25, 1-(2,6-dichloro-4-trifluoromethylphenyl)-3-(trifluoromethylthio)indole]",0/5,0/5,0/5,0/5,0/5,0/5,0/5,0/5,100,100,100,100,100,no insecticidal activity,0,"mortality at 0.01 ppm [1, 4]: 30%; mortality at 0.01 ppm [1, 5]: 60%"
"FC(Cl)(Cl)Sc1cn(-c2c(Cl)cc(C(F)(F)F)cc2Cl)c2ccccc12 [Compound 17, 1-(2,6-dichloro-4-trifluoromethylphenyl)-3-(dichlorofluoromethylthio)indole]",0/5,0/5,0/5,0/5,0/5,0/5,0/5,0/5,0,20,100,80,100,no insecticidal activity,0,"extermination of ticks on the treated right ear (in words) ([3]; in 3 hours after the treatment): quickly exterminated ticks on the right ear; extermination of ticks on the untreated left ear (in words) ([3]; in 1 day after the treatment): also exterminated ticks on the left ear; Number of living ticks, before dropping ([3]; left ear (not treated), baseline before spot-on on right ear): 15; Number of living ticks, after 3 hours [3, 6]: 15; Number of living ticks, after 1 day [3, 6]: 0; Number of living ticks, after 2 days [3, 6]: 0; Number of living ticks, before dropping ([3]; right ear (treated ear), baseline before spot-on of 0.1 ml 20% solution): 15; Number of living ticks, after 3 hours [3, 7]: 3; Number of living ticks, after 1 day [3, 7]: 1; Number of living ticks, after 2 days [3, 7]: 0; Clinical symptom (cat; cat, dropping concentration 10%): No sign was recognized; Clinical symptom (cat; cat, dropping concentration 20%): No sign was recognized; Clinical symptom (cat; cat, dropping concentration 30%): No sign was recognized; abnormal sign due to the spot-on dropping (cat; cat, 10, 20 or 30% liquid drops): no abnormal sign; toxicity to cat (in words) (cat; cat, spot-on 10, 20 or 30% liquid drops): only low toxicity; mortality at 0.1 ppm [1, 5]: 0%"
"N#Cc1nn(-c2c(Cl)cc(C(F)(F)F)cc2Cl)c(N)c1[S+]([O-])C(F)(F)F (centres unmarked) [Fipronil, 5-amino-1-(2,6-dichloro-4-(trifluoromethyl)phenyl)-4-((trifluoromethyl)sulfinyl)-1H-pyrazole-3-carbonitrile, reference compound]",0/5,1/5,1/5,1/5,1/5,5/5,5/5,5/5,–,–,–,–,–,–,–,"mortality at 0.1 ppm ([1]; 48 h, 0.1 ppm, Haemaphysalis longicornis larvae, 23° C., read-out: Mortality after 2 days): 30%; mortality at 1 ppm ([1]; 48 h, 1 ppm, Haemaphysalis longicornis larvae, 23° C., read-out: Mortality after 2 days): 100%; mortality at 10 ppm ([1]; 48 h, 10 ppm, Haemaphysalis longicornis larvae, 23° C., read-out: Mortality after 2 days): 100%; mortality at 0.1 ppm ([1]; 96 h, 0.1 ppm, Haemaphysalis longicornis larvae, 23° C., read-out: Mortality after 4 days): 60%; mortality at 1 ppm ([1]; 96 h, 1 ppm, Haemaphysalis longicornis larvae, 23° C., read-out: Mortality after 4 days): 100%; mortality at 10 ppm ([1]; 96 h, 10 ppm, Haemaphysalis longicornis larvae, 23° C., read-out: Mortality after 4 days): 100%"
